# Experimental data from patent US20230027929A1, “MrgprX2 Antagonists and Uses Thereof” (Dermira, Inc., priority 2019, published 2023).
# Biological target: T1, hMrgpMRGPRX2 (Homo sapiens, UniProt Q96LB1)
# T1 construct: expressed in transfected cells
# T1 sequence (Q96LB1 1-330): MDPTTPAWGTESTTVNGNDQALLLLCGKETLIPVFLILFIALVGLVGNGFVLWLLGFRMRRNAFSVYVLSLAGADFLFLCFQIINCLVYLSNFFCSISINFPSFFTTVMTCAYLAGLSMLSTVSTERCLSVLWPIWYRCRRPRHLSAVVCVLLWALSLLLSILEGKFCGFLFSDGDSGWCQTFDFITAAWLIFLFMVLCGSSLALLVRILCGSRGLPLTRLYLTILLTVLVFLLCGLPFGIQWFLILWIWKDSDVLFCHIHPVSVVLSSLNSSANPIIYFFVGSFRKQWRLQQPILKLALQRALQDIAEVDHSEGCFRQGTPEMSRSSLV
# Assay: FLIPR intracellular calcium mobilization, antagonist activity in recombinant hMrgpMRGPRX2 expressing cells
# Type: cell-based
# Conditions: read-out: Human MrgprX2 Antagonist pIC50 (converted)
# Excerpt: Potent and selective hMrgpMRGPRX2 compounds have been generated from compounds identified during a high throughput screening (HTS) campaign and followed up with cycles of structure activity based medicinal chemistry efforts. These compounds were characterized in recombinant hMrgpMRGPRX2 expressing cells for their antagonist activity and the potency was confirmed in the human mast cell line LAD-2, where the target is endogenously expressed. The assays used to determine potencies are functional read-out looking at intracellular calcium mobilization using the FLIPR™ technology. In these FLIPR assays, we test the identified compounds using recombinant cellular systems expressing mouse MrgprB2, mouse MrgprA1, gerbil MrgpMRGPRX2 orthologue, Chinese hamster MrgpMRGPRX2 orthologue and cynomolgus monkey MrgpMRGPRX2 orthologue, respectively for orthologue activity.
row,SMILES,IC50
1,CC(C)C(=O)Nc1ccc(Oc2ccccc2)cn1 [Compound E002],501 nM
2,"CC1(C)C(C(=O)Nc2ccc(-n3cccn3)cn2)C1(C)C [Compound E199, 2,2,3,3-tetramethyl-N-(5-pyrazol-1-yl-2-pyridyl)cyclopropanecarboxamide]",33.9 nM
3,CC1(C)C(C(=O)Nc2ccc(Oc3cncc(F)c3)cn2)C1(C)C [Compound E0530],2 nM
4,CC1(C(=O)Nc2ccc(Oc3cccc(F)c3)cn2)CCOC1 (centres unmarked) [Compound E011],6310 nM
5,C[C@@H]1C[C@H]1C(=O)Nc1ccc(Oc2ccc(F)c(F)c2)cn1 (racemic) [Compound E048.1],79.4 nM
6,N#C[C@H]1C[C@@H]1C(=O)Nc1ccc(Oc2ccc(F)c(F)c2)cn1 [Compound E050],398 nM
7,O=C(Nc1ccc(Oc2ccc(F)c(F)c2)cn1)C1CC12CC2 (centres unmarked) [Compound E044],12.6 nM
8,O=C(Nc1ccc(Oc2ccc(F)c(F)c2)cn1)C1CCCC1 [Compound E031],63.1 nM
9,CC1(C)C(C(=O)Nc2ccc(Oc3cn[nH]c3)cn2)C1(C)C [Compound E074],257 nM
10,CC1(C)C(C(=O)Nc2ccc(Cl)cn2)C1(C)C [Compound E204],1.58 nM
11,CC1(C(=O)Nc2ccc(Oc3ccccc3F)cn2)CCOCC1 [Compound E007],2510 nM
12,"CC(C)C(=O)Nc1ccc(N(C)c2ccccc2)cn1 [Compound E096, 2-methyl-N-[5-(N-methylanilino)-2-pyridyl]propanamide]",2510 nM
13,CC(C)C(=O)Nc1ccc(Oc2ccccc2F)cn1 [Compound E005],79.4 nM
14,CC1(C)C(C(=O)Nc2ccc(C(F)(F)F)cn2)C1(C)C [Compound E205],501 nM
15,O=C(Nc1ccc(Oc2cccc(F)c2)cn1)C1(C(F)(F)F)CC1 [Compound E012],398 nM
16,CC1(C)C(C(=O)Nc2ccc(-n3ccnn3)cn2)C1(C)C [Compound E090],3390 nM
17,"CC1(C)C(C(=O)Nc2ccc(-c3cnco3)cn2)C1(C)C [Compound E273, 2,2,3,3-tetramethyl-N-(5-oxazol-5-yl-2-pyridyl)cyclopropanecarboxamide]",661 nM

row,SMILES,IC50
1,CC(C)C(=O)Nc1ccc(Oc2ccc(F)c(F)c2)cn1 [Compound E010],39.8 nM
2,CC(C)C(=O)Nc1ccc(Oc2cccc(F)c2F)cn1 [Compound E009],79.4 nM
3,CC(O)(C(=O)Nc1ccc(Oc2cccc(F)c2)cn1)C(F)(F)F (centres unmarked) [Compound E013],794 nM
4,"CC(C)(C#N)C(=O)Nc1ccc(Oc2cccc(F)c2)cn1 [Compound E001, 2-cyano-N-[5-(3-fluorophenoxy)-2-pyridyl]-2-methyl-propanamide]",398 nM
5,"CC1(C)C[C@H]1C(=O)Nc1ccc(Oc2ccc(F)c(F)c2)cn1 (single isomer, unassigned) [Compound E078]",7.94 nM
6,CC1(C)C(C(=O)Nc2ccc(-n3nccn3)cn2)C1(C)C [Compound E089],15.1 nM
7,CC1(C)OCCC1C(=O)Nc1ccc(Oc2ccc(F)c(F)c2)cn1 (centres unmarked) [Compound E068],263 nM
8,CC1(C)C(C(=O)Nc2ccc(N3CCC(F)(F)C3)cn2)C1(C)C [Compound E100],34.7 nM
9,CC(C)C(=O)Nc1ccc(OC2CCCC2)cn1 [Compound E084],1580 nM
10,CC(C)C(=O)Nc1ccc(Oc2cccc(C#N)c2)cn1 [Compound E018],6310 nM
11,"CC(C)C(=O)Nc1ccc(Nc2ccccc2)cn1 [Compound E094, N-(5-anilino-2-pyridyl)-2-methyl-propanamide]",3980 nM
12,"CC(C)(O)COc1ccc(NC(=O)C2C(C)(C)C2(C)C)nc1 [Compound E080, N-[5-(2-hydroxy-2-methyl-propoxy)-2-pyridyl]-2,2,3,3-tetramethyl-cyclopropanecarboxamide]",4370 nM
13,O=C(Nc1ccc(Oc2ccc(F)c(F)c2)cn1)N1CCCC1 [Compound E105],7940 nM
14,CC1(C)C(C(=O)Nc2cnc(Oc3cncc(F)c3)cn2)C1(C)C [Compound E222],12.6 nM
15,C[C@@H]1C[C@@H]1C(=O)Nc1ccc(Oc2ccc(F)c(F)c2)cn1 [Compound E048],15.8 nM
16,"CC1(C)C(C(=O)Nc2ccc(-c3ncco3)cn2)C1(C)C [Compound E198, 2,2,3,3-tetramethyl-N-(5-oxazol-2-yl-2-pyridyl)cyclopropanecarboxamide]",33.9 nM

# The next lines start with the values.
row,IC50,SMILES
1,12.6 nM,CC1(C)CC1C(=O)Nc1ccc(-c2cc(F)cc(F)c2)cn1 (centres unmarked) [Compound E180]
2,6310 nM,CN(C)C(=O)Nc1ccc(-c2cc(F)cc(F)c2)cn1 [Compound E193]
3,1.62 nM,CCN(C[C@@H](O)C(F)(F)F)C(=O)Nc1cnc(Oc2ccc(F)cc2F)cn1 [Compound E249]
4,1260 nM,CC(C)C(=O)Nc1ccc(-c2ccc(F)cc2)cn1 [Compound E165]
5,2.09 nM,CCN(C[C@@H](O)C(F)(F)F)C(=O)Nc1ccc(Oc2ccc(F)cc2F)cn1 [Compound E137]
6,2.04 nM,"CN(C[C@@](C)(O)C(F)(F)F)C(=O)Nc1ccc(Oc2ccc(F)cc2F)cn1 [Compound E141, 3-[5-(2,4-difluorophenoxy)-2-pyridyl]-1-methyl-1-[(2R)-3,3,3-trifluoro-2-hydroxy-2-methyl-propyl]urea]"
7,17.8 nM,CCN(C[C@@H](O)C(F)(F)F)C(=O)Nc1cc(Oc2ccccc2C#N)ccn1 [Compound E158]
8,6170 nM,O=C(Nc1ccc(Oc2cc(F)cc(F)c2)cn1)N1CC[C@H](CO)C1 [Compound E133]
9,0.891 nM,CCN(C[C@@H](O)C(F)(F)F)C(=O)Nc1cc(Oc2cccc(F)c2)c(F)cn1 [Compound E161]
10,891 nM,"CCN(C[C@@H](O)C(F)(F)F)C(=O)Nc1cc(Oc2cccc(F)c2)ncn1 [Compound E291, 1-ethyl-3-[6-(3-fluorophenoxy)pyrimidin-4-yl]-1-[(2R)-3,3,3-trifluoro-2-hydroxy-propyl]urea]"
11,288 nM,CC1(C)CC1C(=O)Nc1cnc(-c2cc(F)cc(C#N)c2)cn1 (centres unmarked) [Compound E230]
12,1.58 nM,"CN(C[C@@](C)(O)C(F)(F)F)C(=O)Nc1ccc(Oc2cc(F)cc(F)c2)cn1 [Compound E140, 3-[5-(3,5-difluorophenoxy)-2-pyridyl]-1-methyl-1-[(2R)-3,3,3-trifluoro-2-hydroxy-2-methyl-propyl]urea]"
13,1950 nM,CCN(C[C@@H](O)C(F)(F)F)C(=O)Nc1ccc(Oc2cc(F)ccc2C#N)cn1 [Compound E129]
14,81.3 nM,C[C@]1(C(=O)Nc2ccc(Oc3cc(F)ccc3F)cn2)CCCN1S(N)(=O)=O [Compound E281]
15,6310 nM,CC(C)NC(=O)Nc1ccc(Oc2ccc(F)c(F)c2)cn1 [Compound E107]
16,3.72 nM,CCN(C[C@@H](O)C(F)(F)F)C(=O)Nc1ccc(Oc2cccc(F)c2F)cn1 [Compound E120]

row,IC50,SMILES
1,7760 nM,CCN(C[C@@H](O)C(F)(F)F)C(=O)Nc1ccc(Oc2cc(C#N)ccc2F)cn1 [Compound E126]
2,28.2 nM,"CCN(C[C@@H](O)C(F)(F)F)C(=O)Nc1ccc(Oc2ccc(F)cc2F)cn1 (single isomer, unassigned) [Compound E267]"
3,295 nM,CCN(C[C@@H](O)C(F)(F)F)C(=O)Nc1cnc(Oc2ccc(F)cc2C(F)(F)F)cn1 [Compound E264]
4,24.5 nM,CCN(C[C@@H](O)C(F)(F)F)C(=O)Nc1cnc(Oc2ccc(C)cc2F)cn1 [Compound E263]
5,1350 nM,CCN(C[C@@H](O)C(F)(F)F)C(=O)Nc1ccc(Oc2cc(F)cc(C#N)c2)cn1 [Compound E116]
6,42.7 nM,CN(C[C@@](C)(O)C(F)(F)F)C(=O)Nc1cc(Oc2cccc(F)c2)ccn1 [Compound E160]
7,2.57 nM,CN(C[C@@](C)(O)C(F)(F)F)C(=O)Nc1cnc(Oc2cc(F)ccc2F)cn1 [Compound E250]
8,724 nM,"CCN(C[C@@H](O)C(F)(F)F)C(=O)Nc1cc(Oc2ccc(F)c(F)c2)ncn1 [Compound E289, 3-[6-(3,4-difluorophenoxy)pyrimidin-4-yl]-1-ethyl-1-[(2R)-3,3,3-trifluoro-2-hydroxy-propyl]urea]"
9,1580 nM,CCN(C[C@@H](O)C(F)(F)F)C(=O)Nc1cc(Oc2ccc(C#N)cc2)ccn1 [Compound E157]
10,63.1 nM,CC1(C)CC1C(=O)Nc1cnc(Oc2ccc(F)c(F)c2)cn1 (centres unmarked) [Compound E225]
11,102 nM,"CC1(C)CC1C(=O)Nc1cnc(-c2cc(F)cc(F)c2)cn1 (single isomer, unassigned) [Compound E231, N-[5-(3,5-difluorophenyl)pyrazin-2-yl]-2,2-dimethyl-cyclopropanecarboxamide]"
12,562 nM,NS(=O)(=O)N1CCC[C@H]1C(=O)Nc1ccc(Oc2cc(F)cc(F)c2)cn1 [Compound E283]
13,631 nM,"CC(C)N(C)C(=O)Nc1cnc(Oc2cc(F)cc(F)c2)cn1 [Compound E234, 3-[5-(3,5-difluorophenoxy)pyrazin-2-yl]-1-isopropyl-1-methyl-urea]"
14,3090 nM,"CCN(C[C@@H](O)C(F)(F)F)C(=O)Nc1ccc(-c2ncco2)cn1 [Compound E197, 1-ethyl-3-(5-oxazol-2-yl-2-pyridyl)-1-[(2R)-3,3,3-trifluoro-2-hydroxy-propyl]urea]"
15,589 nM,NS(=O)(=O)N1CCC[C@@H]1C(=O)Nc1ccc(Oc2cc(F)ccc2F)cn1 [Compound E280]
16,200 nM,CC(C)C(=O)Nc1ccc(-c2cccc(C#N)c2)cn1 [Compound E170]
